In ChEMBL document CHEMBL3507680, “University of Dundee, Gates Library screen for HepG2 cell viability”:

Assay: Human HepG2 cell viability assay in 384 well format
Assay type: toxicity, cell-based
Set-up: dose 125 nL, time 70.5 hour; cytotoxicity at 70.5 h: concentration not given beside the values
Details: HepG2 cells, read-out: Inhibition

Structure (SMILES)	cytotoxicity at 70.5 h [%]
CC(C)(N)C(=O)N1CCC(c2nccnc2Oc2cccc(F)c2)CC1	-10.4
CC(C)(N)C(=O)N1CCC(c2nccnc2Oc2ccccc2F)CC1	7.72
Cc1cccc(Oc2nccnc2C2CCN(C(=O)C(C)(C)N)CC2)c1	-4.07
Cc1noc(C)c1C(=O)N1CCC(c2[nH]ncc2S(C)(=O)=O)C1 (configuration not stated)	-1.52
CCn1cc(C(=O)N2CCCC(c3nccs3)C2)cn1 (configuration not stated)	-2.34
CNc1cncc(C2CCCN2C(=O)c2ccc3c(c2)OCCO3)n1 (configuration not stated)	20.5
COCCC(=O)N1CCCC1c1nccnc1Nc1ncccn1 (configuration not stated)	16.8
CCc1cc(C(=O)N2CCCC(Cc3ccc(NC)nn3)C2)on1 (configuration not stated)	50.7
CCCC1c2cccn2CCN1C(=O)c1cc(CC)no1 (configuration not stated)	-2.22
Cc1csc2c(=O)n3c(nc12)CCN(C(=O)c1ccnn1C)CC3	-6.6
Cc1csc2c(=O)n3c(nc12)CCN(C(=O)c1ccccn1)CC3	-0.0193
c1coc(-c2[nH]c3ncccc3c2CN2CCCOCC2)c1	-4.25
CN1CCN(Cc2c(-c3ccco3)[nH]c3ncccc23)CC1	-6.17
COc1cc2nc3n(c(=O)c2cc1OC)CCN(C(=O)C1CCC1)CC3	-4.59
CCCn1cc(C(=O)N2CCOC(c3nc(-c4cccs4)no3)C2)cn1 (configuration not stated)	-4.18
O=C(N[C@@H]1CN(Cc2ccc3[nH]ccc3c2)C[C@H]1O)c1cscn1	19.9
O=C(N[C@@H]1CN(Cc2ccc(F)cc2)C[C@H]1O)c1cscn1	-1.52
Cc1cccnc1CN1CCCCC1c1ccn2ccnc2n1 (configuration not stated)	-4.81
CNc1ncccc1CN1CCCCC1c1cc(C)n2ccnc2n1 (configuration not stated)	-5.95
Cc1cc2cc(C(=O)N[C@@H]3CC[C@@H](N4CCCC4)[C@@H]3O)ccc2o1	-5.68
CCc1nccn1-c1cncc(C2CCCN2Cc2ccccc2)n1 (configuration not stated)	-5.36
CNc1nc(C2CCCCN2C(=O)COC)nc2c1CN(C)CC2 (configuration not stated)	-9.52
CNc1nc(C2CCCCN2C(=O)C(C)(C)OC)nc2c1CN(C)CC2 (configuration not stated)	-7.36
Cn1cc(C(=O)N2CCCC(Cc3cccc4ncccc34)C2)cn1 (configuration not stated)	-3.73

Structure (SMILES)	cytotoxicity at 70.5 h [%]
Cc1cncc(C2CCCN(CC3CCC3)C2)n1 (configuration not stated)	-4.65
CCc1nccn1-c1cncc(C2CCCN2CC(=O)N2CCCC2)n1 (configuration not stated)	-3.79
CCCn1cc(CN2CCC(c3[nH]ncc3S(C)(=O)=O)C2)cn1 (configuration not stated)	-7.48
Cc1ccc(-c2cc(CS(=O)(=O)NC3CCCNC3=O)on2)cc1 (configuration not stated)	0.495
Cc1cc(CC(C)NC(=O)c2n[nH]c3c2CCC3)n[nH]1 (configuration not stated)	3.59
Cc1cc(NC(=O)NCCO)nn1-c1ccc(Cl)cc1Cl	0.498
Cc1cc(NC(=O)CO)nn1-c1ccc(Cl)cc1Cl	4.81
COCCN(CCOC)C(=O)c1cnn(C)c1-n1c(C)ccc1C	1.05
CCCN(CCC)C(=O)c1cnn(C)c1C	9.54
Cc1cc(C)cc(OCCN(C)C2CCOC2=O)c1 (configuration not stated)	1.42
CN(CCOc1ccccc1F)C1CCOC1=O (configuration not stated)	-1.46
COc1ccccc1NC(=O)CCNC(=O)c1ccoc1	0.887
CS(=O)(=O)c1ccc(Cl)c(C(=O)NCCC2=CCCCC2)c1	32.9
CCOC(=O)c1ccc(S(=O)(=O)NCC(CC)N2CCCC2)cc1 (configuration not stated)	-5.87
COCc1ccccc1NC(=O)c1ccoc1	-15
CC(C)CN(CC(F)(F)F)S(=O)(=O)c1cc(C(N)=O)n(C)c1	1.58
CC(C)C1CCCN1C(=O)Nc1ccc(=O)n(C)c1 (configuration not stated)	15
CC(=O)NCCNC(=O)NCc1ccc(-n2ccc(C(F)(F)F)n2)cc1	-6.79
COc1ccc(NCCC(=O)NCc2cccnc2N(C)C)cc1	-8.23
Cn1cc(NC(=O)N2CCCC2c2ccccn2)ccc1=O (configuration not stated)	-5.4
c1ccc2c(NC3CCc4ncnn4C3)ncnc2c1 (configuration not stated)	-4.29
CCNC(=O)NCc1ccc(-n2ccc(C(F)(F)F)n2)cc1	-3.86
Cc1nc2n(n1)CC(Nc1nc(C(F)(F)F)nc3ccccc13)CC2 (configuration not stated)	-1.15
Cc1cnn(C2CN(Cc3nc4cc(Cl)ccc4n3C)C2)c1	7.22

Structure (SMILES)	cytotoxicity at 70.5 h [%]
COC(=O)c1occc1Cn1cc(Br)cn1	-2.08
Cn1cc(CCCN2CCCC(c3cc(C(F)(F)F)[nH]n3)C2)cn1 (configuration not stated)	6.94
Cc1nc(S(=O)(=O)N2CCCCc3ccccc32)cn1C	9.73
OCCC1CCN(c2ccnc3ccsc23)C1 (configuration not stated)	-3.95
COCCNS(=O)(=O)c1c(C)sc2ccccc12	-4.03
CCOC(=O)C1(NCC(=O)Nc2cc(C)ccc2OC)CCCC1	21.1
Cn1cc(CC(=O)N2CCCC(c3ccn[nH]3)C2)cn1 (configuration not stated)	-1.63
COCCN(Cc1ccccn1)C(=O)Nc1cccnc1-n1cccn1	18.4
CCN(Cc1ccco1)C(=O)NCC(C)N1CCc2sccc2C1 (configuration not stated)	13.6
Cc1ccc(-c2noc(CCC(=O)NC(C)Cn3cccn3)n2)cc1 (configuration not stated)	-7.96
Cc1cccc2c1OCCC2NCc1c(C(C)C)nn(C)c1N(C)C (configuration not stated)	-10.6
CCS(=O)(=O)CC(=O)NC(C)c1ccc(OCCC(C)C)cc1 (configuration not stated)	-1.31
O=C(CCn1cnc2cc(F)c(F)cc21)N1CCN2CCCCC2C1 (configuration not stated)	-1.04
CCCNc1nnc(S(=O)(=O)CCOCC)s1	-0.768
CC(NC(=O)CSCC(N)=O)c1ccc(Oc2ccccc2)cc1 (configuration not stated)	-8.85
O=C(NCCO)Nc1ccc(Cl)cc1-n1cccc1	0.77
CN(CC(=O)NC(N)=O)CC1(c2ccc(Br)cc2)CC1	-1.35
Cc1nc(COc2ccc(OC3CCCCNC3=O)cc2)oc1C (configuration not stated)	1.82
Cc1cc(COc2ccc(OC3CCCCNC3=O)cc2)on1 (configuration not stated)	-3.96
CN(CC(N)=O)CC1(c2ccc(Br)cc2)CC1	-5.53
CN1CCC(NC(=O)Nc2cnn(-c3ccccc3Cl)c2)C1=O (configuration not stated)	-7.73
CC(C)OCCC(=O)NCC(O)c1c(Cl)cccc1Cl (configuration not stated)	-3.94
Cc1ccc(S(=O)(=O)N2CCOCC2C(N)=O)c(F)c1 (configuration not stated)	-8.93
COc1cccc(-c2n[nH]cc2CNC2CCCN(C)C2)c1 (configuration not stated)	-5.83

Structure (SMILES)	cytotoxicity at 70.5 h [%]
CC(C)OCc1ccccc1CNC(=O)C(C)S(=O)(=O)C(C)C (configuration not stated)	-5.26
COC(=O)c1ccc(NC(C)c2ccc3c(c2)NC(=O)CO3)nn1 (configuration not stated)	-1.28
CC(C)c1noc(CCNC(=O)NCC2Cc3ccccc3O2)n1 (configuration not stated)	-13.5
CCOc1ccc(SCCS(=O)(=O)CC)cc1	-6.32
COC(=O)c1ccc(Cl)c(NS(=O)(=O)c2cnn(C)c2)c1	10.2
Cc1[nH]ccc1C(=O)NCC1CC(=O)N(CCc2ccccc2)C1 (configuration not stated)	-3.09
CC(C)N(C)S(=O)(=O)N(C)Cc1cnn(C)c1	-3.87
CCCc1noc(CCCC(=O)N2CCCC(n3ccnc3C)C2)n1 (configuration not stated)	-2.44
CCOc1ccc(CNC(=O)N2CCCC(CO)C2)cc1F (configuration not stated)	0.25
Cc1nccn1C1CCCN(C(=O)CCc2nc(C(C)C)no2)C1 (configuration not stated)	-11.2
CCCc1noc(CCC(=O)N2CCCC(n3ccnc3C)C2)n1 (configuration not stated)	-9.38
CN(Cc1ccco1)C(=O)NCc1ccnc(SC(C)(C)C)c1	-8.67
O=C(NC1CCCCNC1=O)c1cc2ccccc2[nH]c1=O (configuration not stated)	-15.7
O=C(NCc1ccc2c(c1)OCCO2)N1CCC(CO)CC1	4.7
NC(=O)C1CCN(C(=O)NCc2ccc3c(c2)OCCO3)CC1	-9.87
CC(=O)NCC1CCN(C(=O)NCCc2ccc3c(c2)OCO3)CC1	-17.3
CC(=O)NCC1CCN(C(=O)NCc2ccc3c(c2)OCCO3)CC1	-16.3
CCC(C)(CNC(=O)Nc1nncs1)N1CCOCC1 (configuration not stated)	-13.4
CCc1nc(C)c(C(=O)NCCNc2ncnc3sccc23)s1	4.06
CCc1ncncc1C(=O)NCCNc1ncnc2sccc12	-21.7
N#Cc1ccc(CN2CCN(C(=O)CCn3cncn3)CC2)cc1	6.05
CCCc1noc(CCC(=O)N2CCN(C)CC2c2ccccc2)n1 (configuration not stated)	-15
Cc1ccc(C(=O)NC2CCCCNC2=O)c(=O)[nH]1 (configuration not stated)	-6.58
CN(c1ccc(F)cc1)S(=O)(=O)c1cc2c(c(C(=O)O)c1)OCCO2	-10.5

Structure (SMILES)	cytotoxicity at 70.5 h [%]
CN(c1c(F)cccc1F)S(=O)(=O)c1cc2c(c(C(=O)O)c1)OCCO2	9.94
CN(c1ccc(F)c(F)c1)S(=O)(=O)c1cc2c(c(C(=O)O)c1)OCCO2	-7.51
O=S(=O)(Cc1ccccc1)c1nnc(N2CCCC2)s1	-2.76
Cc1nc(C2CCCN(C(=O)C3=NN(C(C)C)C(=O)CC3)C2)no1 (configuration not stated)	-9.12
O=S(=O)(Cc1ccccc1)c1nnc(N2CCOCC2)s1	-9.13
CN(CC1CCC1)C(=O)Nc1cccnc1-n1cncn1	-12.4
CC(C)Oc1ncc(C(=O)N2CCc3ccc(O)cc3C2)cc1Cl	15.8
O=C(Nc1cccnc1-n1cncn1)N(C1CCCC1)C1CC1	-7.6
Cc1nnc(C(C)Nc2cccc(COCCc3ccccc3)c2)o1 (configuration not stated)	-8.73
CN1CCC(C(=O)N2CCCN(c3cccnn3)CC2)C1 (configuration not stated)	-14.6
CC(=O)NCCCSC1CCN(c2c(F)cccc2F)C1=O (configuration not stated)	22.9
CC(=O)NCCCSC1CCCN(c2ccccc2F)C1=O (configuration not stated)	-6.35
Cc1ccnc(NCc2cccc(OCCN3CCOCC3)c2)n1	32.7
COc1ncc(C2(O)CCN(Cc3cccc(F)c3F)CC2)c(OC)n1	-3.22
Cc1nc(C)c(C(=O)N2CCc3nc4c(C)csc4c(=O)n3CC2)s1	0.911
Cc1ccc(-c2ccc(C3CNCCO3)nc2)cc1 (configuration not stated)	-2.39
CC(C)c1nn(C)c(N(C)C)c1CNC1CCc2cc(F)ccc21 (configuration not stated)	5.83
COc1cccc(-c2n[nH]cc2CNC2CCN(C3CC3)CC2)c1	29.3
Cc1cc(C[C@@H]2CCC[C@H]2NCc2ccccc2C)on1	-1.32
Cc1cc(C[C@@H]2CCC[C@H]2NCc2ccc(C(F)(F)F)cc2)on1	-2
CC1(C)CC(N(Cc2cccnc2)Cc2cccnc2)CC(C)(C)N1	-1.63
